Experiment [1] concerns the target Peptidyl-prolyl cis-trans isomerase FKBP1A (Homo sapiens, UniProt P62942). Nature of the experiment: The compound was tested for binding affinity against human FK506 binding protein 12.
The species named for experiment [2] is Homo sapiens. Nature of the experiment: Immunosuppressive activity examined in an in vitro model of allogenic T-lymphocyte activation(by MLR assay). The class given is functional.
Experiment [3] deals with Rattus norvegicus. Nature of the experiment: The compound was tested in vivo for lympho-proliferation,against popliteal lymph node(inbred male rats) after i.p. administration. It counts as functional. Particulars: ip.
Experiment [4] is filed under the species Homo sapiens. Nature of the experiment: Immunosuppressive activity examined in an in vitro model of allogenic T-lymphocyte activation (by MLR assay). The class given is functional.

As usually defined, the pIC50 is the negative decadic logarithm of the IC50, by convention in mol/L. One may read the ED50 as the dose at which the effect has come halfway, by size or by number of responders. Low values mean greater potency, high ones weaker potency.

Molecules are shown by their SMILES. pIC50: −log10 of the molar value.

Peptidyl-prolyl cis-trans isomerase FKBP1A, sequence (P62942 whole entry): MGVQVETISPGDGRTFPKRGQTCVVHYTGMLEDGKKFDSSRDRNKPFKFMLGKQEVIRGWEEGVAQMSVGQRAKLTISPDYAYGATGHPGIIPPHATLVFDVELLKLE

In the case of `CC[C@@H]1/C=C(\C)C[C@H](C)C[C@H](OC)[C@H]2O[C@@](O)(C(=O)C(=O)N3CCCC[C@H]3C(=O)O[C@H](/C(C)=C/[C@@H]3CC[C@@H](O)[C@H](OC)C3)[C@H](C)/C=C/C1=O)[C@H](C)C[C@@H]2OC`, the pIC50 in experiment [1] is 6.28; in experiment [2], 7.66.
`CC[C@@H]1/C=C(\C)C[C@H](C)C[C@H](OC)[C@H]2O[C@@](O)(C(=O)C(=O)N3CCCC[C@H]3C(=O)O[C@H](/C(C)=C/[C@@H]3CC[C@@H](O)[C@H](OC)C3)[C@H](C)CCC1=O)[C@H](C)C[C@@H]2OC`: the pIC50 was 9.11 in experiment [1] and 9.82 in experiment [4]. The molecule also yielded an ED50 in experiment [3] of 0.65 mg/kg/day.
`CC[C@@H]1/C=C(\C)C[C@H](C)C[C@H](OC)[C@H]2O[C@@](O)(C(=O)C(=O)N3CCCC[C@H]3C(=O)O[C@H](/C(C)=C/[C@@H]3CC[C@@H](O)[C@H](OC)C3)[C@H](C)[C@@H](O)CC1=O)[C@H](C)C[C@@H]2OC` [ASCOMYCIN]: in experiment [3], it took a dose of 0.32 mg/kg/day to reach the 50% effect level (ED50). The molecule further had a negative logarithm of the IC50 (pIC50) in experiment [4] of 9.59.
For `C=CC[C@@H]1/C=C(\C)C[C@H](C)C[C@H](OC)[C@H]2O[C@@](O)(C(=O)C(=O)N3CCCC[C@H]3C(=O)O[C@H](/C(C)=C/[C@@H]3CC[C@@H](O)[C@H](OC)C3)[C@H](C)[C@@H](O)CC1=O)[C@H](C)C[C@@H]2OC` [TACROLIMUS ANHYDROUS], in that order: 0.15 mg/kg/day and 9.64.

These data come from ChEMBL document CHEMBL1132455, “Retention of immunosuppressant activity in an ascomycin analogue lacking a hydrogen-bonding interaction with FKBP12” (J Med Chem, 1999).
